Test results published in PubChem BioAssay AID623873 (Sanford-Burnham Center for Chemical Genomics, 2012).
Active and inactive are the calls of the source.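 Rule for the calls: active = IC50 at or below 20 µM in the dose response; inactive = the rest.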

Tested on: HL-1 cardiomyocytes, 2-deoxyglucose injury, ATP luminescence, 2 h
Test: HL-1 cardiomyocyte survival under 2-deoxyglucose – cell-based, ATP luminescence, SAR follow-up (AID 623873)

Structure (SMILES) | IC50
COc1cccc(CN(C)C(=O)c2cc(-c3ccccc3)nc3ccc(C)cc23)c1OC | > 79 µM (inactive)
O=c1[nH]c2ccccc2cc1CN(Cc1ccco1)S(=O)(=O)c1ccc(F)cc1 | > 79 µM (inactive)
NC(=O)c1nsc(C(=O)N(Cc2ccccc2)C(C(=O)NCc2ccc(F)cc2)c2ccc(O)cc2)c1N (configuration not stated) | > 79 µM (inactive)
COc1ccc(-n2cc(-c3ccccc3)c3c(NCc4ccccc4)ncnc32)cc1 | > 79 µM (inactive)
O=C1c2ccccc2N2C(=O)c3ccccc3[C@H]2N1c1ccccc1 | > 79 µM (inactive)
COc1cccc(NC(=O)CN(C)C(=O)c2cc(-c3cccs3)nn2-c2ccccc2)c1 | > 79 µM (inactive)
COc1ccc2cc(C(=O)N3CCN(S(=O)(=O)c4ccc(C)cc4C)CC3)c(C)nc2c1 | > 79 µM (inactive)
Cc1ccc(-c2[nH]c3ccccc3c2C(=O)C(=O)N(C)C)cc1 | > 79 µM (inactive)
COc1ccc2c(=O)c(C(=O)N3CCN(S(=O)(=O)c4c(C)cc(C)cc4C)CC3)c[nH]c2c1 | > 79 µM (inactive)
COc1ccc(-c2cc(C(=O)N(C)C)c3ccccc3n2)cc1OC | 71.9 µM (inactive)
COc1cccc(CN(C)C(=O)c2cc(-c3ccc(OC)c(OC)c3)nc3ccccc23)c1 | 5.52 µM
COc1ccc(S(=O)(=O)N(Cc2cccnc2)Cc2cc3ccccc3[nH]c2=O)cc1 | > 79 µM (inactive)
COc1ccc(NC(=O)CN(C)C(=O)c2cc(-c3cccs3)nn2-c2ccccc2)cc1 | > 79 µM (inactive)
COc1ccc(-n2cc(-c3ccccc3)c3c(N4CCCCC4)ncnc32)cc1 | > 79 µM (inactive)
COc1ccc2c(c1OC)C(=O)N1c3ccccc3C(=O)N(c3cccc(Br)c3)C21 (configuration not stated) | 0.684 µM
COc1ccc2c(c1OC)C(=O)N1c3ccccc3C(=O)N(c3ccccc3C)C21 (configuration not stated) | 11.7 µM (inactive)
COc1cc(-c2cc(C(=O)Nc3cccc(C(C)=O)c3)c3ccccc3n2)cc(OC)c1OC | 1.76 µM
COc1ccc2c(c1OC)C(=O)N1c3ccccc3C(=O)N(c3ccc(F)cc3)C21 (configuration not stated) | 3.4 µM
Cc1ccc(C)c(S(=O)(=O)N2CCN(C(=O)c3cc4cc(C)ccc4nc3C)CC2)c1 | > 79 µM (inactive)
CCCn1c(SC(C(=O)Nc2cccc(OC)c2)c2ccccc2)nc2ccccc2c1=O (configuration not stated) | > 79 µM (inactive)
COCCNC(=O)C(c1ccc(O)cc1)N(C(=O)c1snc(C(N)=O)c1N)c1ccccc1F (configuration not stated) | > 79 µM (inactive)

Structure (SMILES) | IC50
Cc1ccc(S(=O)(=O)N(Cc2cccnc2)Cc2cc3ccccc3[nH]c2=O)cc1 | > 79 µM (inactive)
COc1ccc(-n2cc(-c3ccccc3)c3c(N4CCCC4)ncnc32)cc1 | > 79 µM (inactive)
CCCN(CC(=O)Nc1ccccc1OC)C(=O)c1cc(-c2cccs2)nn1-c1ccccc1 | > 79 µM (inactive)
COc1ccc2cc(C(=O)N3CCN(S(=O)(=O)c4cc(C)ccc4C)CC3)c(C)nc2c1 | > 79 µM (inactive)
O=C(C(=O)N1CCCC1)c1c(-c2ccccc2)[nH]c2ccccc12 | > 79 µM (inactive)
COc1ccccc1N1C(=O)c2ccccc2N2C(=O)c3c(ccc(OC)c3OC)C12 (configuration not stated) | 29.4 µM (inactive)
COc1ccc(-c2cc(C(=O)NCc3ccccc3)c3ccccc3n2)cc1OC | > 79 µM (inactive)
Cc1ccc2cc(CN(C)S(=O)(=O)c3ccc(F)cc3)c(=O)[nH]c2c1 | > 79 µM (inactive)
COc1ccc(-c2cc(C(=O)NCc3ccco3)c3ccccc3n2)cc1OC | 20.8 µM (inactive)
CCN(CC)S(=O)(=O)c1cc(C(=O)N2CCN(Cc3cccc4cccnc34)CC2)ccc1C | > 79 µM (inactive)
COc1ccc(-c2cc(C(=O)N(C)Cc3ccc(OC)c(OC)c3OC)c3ccccc3n2)cc1OC | 2.9 µM
CCN(CC(=O)Nc1ccc(OC)cc1)C(=O)c1cc(-c2cccs2)nn1-c1ccccc1 | 2.27 µM
NC(=O)c1nsc(C(=O)N(c2cccc(F)c2)C(C(=O)NC2CCCC2)c2ccc(O)cc2)c1N (configuration not stated) | > 79 µM (inactive)
O=C(C(=O)N1CCCCC1)c1c(-c2ccccc2)[nH]c2ccccc12 | > 79 µM (inactive)
COc1cccc(NC(=O)C(Sc2nc3ccccc3c(=O)n2CC(C)C)c2ccccc2)c1 (configuration not stated) | > 79 µM (inactive)
Cc1ccc(S(=O)(=O)N2CCN(C(=O)c3cc(=O)[nH]c4ccccc34)CC2)cc1C | > 79 µM (inactive)
Cc1ccc(NC(=O)CN(C)C(=O)c2cc(-c3cccs3)nn2-c2ccccc2)cc1 | > 79 µM (inactive)
COc1ccc(N2C(=O)c3ccccc3N3C(=O)c4c(ccc(OC)c4OC)C23)cc1 (configuration not stated) | 1.47 µM
CCN(CC)C(=O)C(=O)c1c(-c2ccccc2)[nH]c2ccccc12 | > 79 µM (inactive)
Cc1ccccc1N(C(=O)c1snc(C(N)=O)c1N)C(C(=O)NCc1ccc(F)cc1)c1ccc(O)cc1 (configuration not stated) | > 79 µM (inactive)
COCCn1c(SC(C(=O)Nc2cc(C)ccc2C)c2ccccc2)nc2ccccc2c1=O (configuration not stated) | > 79 µM (inactive)
